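Interpolation was linear, between the two tested concentrations surrounding the appropriate level; five concentrations were tested over 48 hours in 96-well plates. At the GI50, growth is halved.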 Activity calls are given as the source filed them. Rule as the data show it: active = GI50 up to about 1.1 µM and inactive = higher. Numbered stars: 1 amine (or outer) side, 2 acyl side, 3 side chain; on linkers, the order of the positions; unused ones are H or OH. Bridge positions count the residues as written; N and C are the ends. Square brackets hold non-standard residues; d marks the D form. Peptide text beside a SMILES is read from it. X58 = COc1c(N[*:1])cccc1C(=O)O[C@H](C(=O)[C@H](C)C(=O)[*:2])C(C)C; X57 = CC(C)C[C@H](C(=O)[*:2])C(C)C(=O)C1CCCN1[*:1]; NMeY = CN[C@@H](Cc1ccc(O)cc1)C(=O)O; Lac = C[C@H](O)C(=O)O
Assays:
Assay in all cases: inhibition of tumour cell growth, NCI panel, 48 h
[1] = tested on: A549
[2] = tested on: SK-MEL-2
[3] = tested on: M14
[4] = tested on: MOLT-4
[5] = tested on: SNB-75
[6] = tested on: TK-10
[7] = tested on: MDA-MB-435
[8] = tested on: KM12
[9] = tested on: U-251
[10] = tested on: HL-60
[11] = tested on: Hs-578T
[12] = tested on: NCI-H23
[13] = tested on: NCI-H460
[14] = tested on: EKVX
[15] = tested on: LOX IMVI
[16] = tested on: UO-31
[17] = tested on: MCF7
[18] = tested on: OVCAR-5
[19] = tested on: SF-295
[20] = tested on: RXF 393

Measured: GI50

NC(=O)c1nnc2cc(F)c(F)cc2c1N
inactive: [1] 90.2 µM | [2] 15 µM | [3] 67.5 µM | [4] > 100 µM | [5] 16.7 µM | [6] 35.2 µM | [7] 97.9 µM | [8] > 100 µM | [9] 22.3 µM | [10] > 100 µM | [11] 26.7 µM | [12] 23.3 µM | [13] 58.3 µM | [14] 44.7 µM | [15] 57.3 µM | [16] 22.1 µM | [17] 37.9 µM | [18] 57.3 µM | [19] 27.3 µM

C=Cn1c([N+](=O)[O-])cnc1/C=C/c1ccc(C(=O)OCCN2CCOCC2)cc1
inactive: [1] > 100 µM | [2] > 100 µM | [3] > 100 µM | [4] 38 µM | [5] > 100 µM | [6] > 100 µM | [7] > 100 µM | [8] > 100 µM | [9] > 100 µM | [11] 88.1 µM | [12] > 100 µM | [13] > 100 µM | [14] > 100 µM | [15] > 100 µM | [17] > 100 µM | [18] > 100 µM | [20] > 100 µM | [19] > 100 µM

COC1C(O)C(C)OC(O[C@H]2CC[C@@]3(C)C(CC[C@@H]4[C@@H]3CC[C@]3(C)[C@@H](C(C)OC5OC(CO)C(O)C(O)C5O)CC[C@]43O)C2)C1O (stereo partly specified)
inactive: [1] > 25 µM | [2] > 25 µM | [3] > 25 µM | [4] > 25 µM | [5] > 25 µM | [6] > 25 µM | [7] > 25 µM | [8] > 25 µM | [9] > 25 µM | [10] > 25 µM | [11] > 25 µM | [12] > 25 µM | [13] > 25 µM | [14] > 25 µM | [15] > 25 µM | [16] > 25 µM | [17] > 25 µM | [18] > 25 µM | [19] > 25 µM

Cc1ccc(S(=O)(=O)N2CCN3C(=O)c4ccccc4C32c2ccc(F)cc2)cc1 (stereo unspecified)
inactive: [1] 51.4 µM | [2] 55.6 µM | [3] > 100 µM | [4] 23.8 µM | [5] 72.1 µM | [6] > 100 µM | [7] 32.8 µM | [8] 43.7 µM | [9] > 100 µM | [11] > 100 µM | [12] 97.7 µM | [13] 67.6 µM | [14] 67.8 µM | [16] 44.5 µM | [17] 43.4 µM | [18] > 100 µM | [20] 65.2 µM | [19] 85.7 µM

OC(c1ccccc1)(c1ccccc1)c1nccc2ccccc12
inactive: [1] 36.9 µM | [3] 20.8 µM | [4] 16.7 µM | [6] 12.9 µM | [7] 30.8 µM | [8] 35.9 µM | [9] 29.3 µM | [10] 32.3 µM | [11] 28.5 µM | [12] 20.8 µM | [13] 17.3 µM | [14] 20.7 µM | [15] 17.6 µM | [16] 17.8 µM | [17] 35.2 µM | [18] 31.7 µM | [19] 15.8 µM

C=C1C(=O)O[C@@H]2[C@H]1C[C@@H](O)[C@H](C)[C@@](O)(C(=O)/C=C/C)[C@H]2OC(=O)C(C)CC (stereo partly specified)
inactive: [1] 15.2 µM | [2] 22.5 µM | [3] 3.3 µM | [4] 2.44 µM | [5] 22.6 µM | [6] 3.37 µM | [7] 3.29 µM | [8] 14.8 µM | [9] 11.2 µM | [11] 2.72 µM | [12] 5.31 µM | [13] 28.8 µM | [14] 8.57 µM | [15] 2.93 µM | [16] 1.82 µM | [17] 4.81 µM | [18] 5.47 µM | [20] 2.15 µM | [19] 37.5 µM

CC(=O)C(CN1C(=O)c2ccccc2C1=O)C(C)=O
inactive: [1] > 100 µM | [2] > 100 µM | [3] > 100 µM | [5] > 100 µM | [6] > 100 µM | [7] > 100 µM | [9] > 100 µM | [11] > 100 µM | [12] > 100 µM | [13] > 100 µM | [14] > 100 µM | [16] > 100 µM | [17] > 100 µM | [18] > 100 µM | [20] 23.1 µM | [19] > 100 µM

Cc1ncc([N+](=O)[O-])n1CCN=[N+]=[N-]
inactive: [1] > 100 µM | [2] > 100 µM | [3] > 100 µM | [5] > 100 µM | [6] > 100 µM | [7] > 100 µM | [8] > 100 µM | [9] > 100 µM | [11] > 100 µM | [12] > 100 µM | [13] > 100 µM | [14] > 100 µM | [16] > 100 µM | [17] > 100 µM | [18] > 100 µM | [20] > 100 µM | [19] > 100 µM

C/C=C1\CN2CCC34c5ccccc5N(C)C35OCC4(C(=O)OC)C1CC25 (stereo unspecified)
inactive: [1] 61.4 µM | [2] 42.2 µM | [3] 21.4 µM | [4] 45.7 µM | [5] 99.5 µM | [6] > 100 µM | [7] 38.7 µM | [8] 37.1 µM | [9] 93.3 µM | [10] 15.2 µM | [11] 54.8 µM | [12] 56.9 µM | [13] 25.5 µM | [14] 77.1 µM | [15] 14 µM | [16] 70.6 µM | [17] 40.7 µM | [18] > 100 µM | [19] 34.4 µM

COc1ccc(C[C@H]2C(=O)O[C@H](C)[C@H](NC(=O)[C@@H](CC(C)C)C(C)C(=O)C3CCCN3C(=O)[C@H](C)O)C(=O)Nc3cccc(c3OC)C(=O)O[C@@H](C(C)C)C(=O)[C@H](C)C(=O)N[C@@H](CC(C)C)C(=O)N3CCC[C@H]3C(=O)N2C)cc1 (stereo partly specified) (H-[Lac][X57]T[X58]LP[NMeY](Me); ester 3-C)
inactive: [1] 6.75 µM | [2] > 12.5 µM | [3] 11.4 µM | [4] 1.91 µM | [5] 2.81 µM | [6] > 12.5 µM | [7] 4.93 µM | [8] > 12.5 µM | [9] > 12.5 µM | [11] > 12.5 µM | [12] > 12.5 µM | [13] 9.02 µM | [14] > 12.5 µM | [15] 9.66 µM | [16] > 12.5 µM | [17] > 12.5 µM | [18] > 12.5 µM | [20] > 12.5 µM | [19] > 12.5 µM
